# ChEMBL document CHEMBL3885881, “DrugMatrix”
# Species: Rattus norvegicus
# Assay: DrugMatrix - Regimen: Daily Repeat
# Type: toxicity, organism-based, Sprague-Dawley
# Set-up: regimen Daily Repeat, gender Male, age 6-8 weeks
# Settings: in vivo, po, 34 mg/kg, route oral GAVAGE, dose level Low, vehicle .5 % CMC; for ABSOLUTE BASOPHIL / ABSOLUTE EOSINOPHIL / ABSOLUTE LYMPHOCYTE / ABSOLUTE MONOCYTE / ABSOLUTE SEGMENTED NEUTROPHIL / BASOPHIL / EOSINOPHIL / ERYTHROCYTE COUNT / HEMATOCRIT / HEMOGLOBIN / LEUKOCYTE COUNT / LYMPHOCYTE / MEAN CORPUSCULAR HEMOGLOBIN / MEAN CORPUSCULAR HEMOGLOBIN CONCENTRATION / MEAN CORPUSCULAR VOLUME / MONOCYTE / NEUTROPHIL / NUCLEATED RED BLOOD CELLS / PLATELET COUNT: tissue Blood; for ALANINE AMINOTRANSFERASE / ALBUMIN / ALKALINE PHOSPHATASE / ASPARTATE AMINOTRANSFERASE / BLOOD UREA NITROGEN / CARBON DIOXIDE / CHLORIDE / CHOLESTEROL / CREATINE PHOSPHOKINASE / CREATININE / GLUCOSE / LACTATE DEHYDROGENASE / LIPASE / PHOSPHORUS / POTASSIUM / SODIUM / TOTAL BILIRUBIN / TOTAL PROTEIN / URIC ACID: tissue Plasma
smiles,measurement,setting,value
NS(=O)(=O)c1cc(C(=O)O)c(NCc2ccco2)cc1Cl [FUROSEMIDE],ABSOLUTE BASOPHIL,"72 h, time 3 day",0 CELLS/uL
same,ABSOLUTE EOSINOPHIL,"72 h, time 3 day",0 CELLS/uL
same,ABSOLUTE LYMPHOCYTE,"72 h, time 3 day",13709 CELLS/uL
same,ABSOLUTE MONOCYTE,"72 h, time 3 day",86 CELLS/uL
same,ABSOLUTE SEGMENTED NEUTROPHIL,"72 h, time 3 day",1038.33 CELLS/uL
same,BASOPHIL,"72 h, time 3 day",0%
same,EOSINOPHIL,"72 h, time 3 day",0%
same,ERYTHROCYTE COUNT,"72 h, time 3 day",5.45 x10E6/uL
same,HEMATOCRIT,"72 h, time 3 day",33.7%
same,HEMOGLOBIN,"72 h, time 3 day",13.47 G/DL
same,LEUKOCYTE COUNT,"72 h, time 3 day",14.83 x10E3/uL
same,LYMPHOCYTE,"72 h, time 3 day",92.33%
same,MEAN CORPUSCULAR HEMOGLOBIN,"72 h, time 3 day",24.7 pg
same,MEAN CORPUSCULAR HEMOGLOBIN CONCENTRATION,"72 h, time 3 day",39.97 G/DL
same,MEAN CORPUSCULAR VOLUME,"72 h, time 3 day",61.87 fL
same,MONOCYTE,"72 h, time 3 day",0.67%
same,NEUTROPHIL,"72 h, time 3 day",7%
same,NUCLEATED RED BLOOD CELLS,"72 h, time 3 day",0 /100WBC
same,PLATELET COUNT,"72 h, time 3 day",1150 x10E3/uL
same,ALANINE AMINOTRANSFERASE,"72 h, time 3 day",50.33 u/L
same,ALBUMIN,"72 h, time 3 day",4.17 G/DL
same,ALKALINE PHOSPHATASE,"72 h, time 3 day",404.33 u/L
same,ASPARTATE AMINOTRANSFERASE,"72 h, time 3 day",82.67 u/L
same,BLOOD UREA NITROGEN,"72 h, time 3 day",16 mg/dL
same,CARBON DIOXIDE,"72 h, time 3 day",29.33 mmol/L
same,CHLORIDE,"72 h, time 3 day",99 MEQ/L
same,CHOLESTEROL,"72 h, time 3 day",46.33 mg/dL
same,CREATINE PHOSPHOKINASE,"72 h, time 3 day",391.33 u/L
same,CREATININE,"72 h, time 3 day",0.19 mg/dL
same,GLUCOSE,"72 h, time 3 day",138.67 mg/dL
same,LACTATE DEHYDROGENASE,"72 h, time 3 day",200.67 u/L
same,LIPASE,"72 h, time 3 day",9 u/L
same,PHOSPHORUS,"72 h, time 3 day",10.7 mg/dL
same,POTASSIUM,"72 h, time 3 day",6.62 MEQ/L
same,SODIUM,"72 h, time 3 day",143.97 MEQ/L
same,TOTAL BILIRUBIN,"72 h, time 3 day",0.33 mg/dL
same,TOTAL PROTEIN,"72 h, time 3 day",5.77 G/DL
same,URIC ACID,"72 h, time 3 day",1.33 mg/dL
same,ABSOLUTE BASOPHIL,"120 h, time 5 day",0 CELLS/uL
same,ABSOLUTE EOSINOPHIL,"120 h, time 5 day",0 CELLS/uL
same,ABSOLUTE LYMPHOCYTE,"120 h, time 5 day",14118 CELLS/uL
same,ABSOLUTE MONOCYTE,"120 h, time 5 day",111.33 CELLS/uL
same,ABSOLUTE SEGMENTED NEUTROPHIL,"120 h, time 5 day",770.67 CELLS/uL
same,BASOPHIL,"120 h, time 5 day",0%
same,EOSINOPHIL,"120 h, time 5 day",0%
same,ERYTHROCYTE COUNT,"120 h, time 5 day",5.69 x10E6/uL
same,HEMATOCRIT,"120 h, time 5 day",36.23%
same,HEMOGLOBIN,"120 h, time 5 day",14 G/DL
same,LEUKOCYTE COUNT,"120 h, time 5 day",15 x10E3/uL
same,LYMPHOCYTE,"120 h, time 5 day",94%
same,MEAN CORPUSCULAR HEMOGLOBIN,"120 h, time 5 day",24.6 pg
same,MEAN CORPUSCULAR HEMOGLOBIN CONCENTRATION,"120 h, time 5 day",38.73 G/DL
same,MEAN CORPUSCULAR VOLUME,"120 h, time 5 day",63.7 fL
same,MONOCYTE,"120 h, time 5 day",0.67%
same,NEUTROPHIL,"120 h, time 5 day",5.33%
same,NUCLEATED RED BLOOD CELLS,"120 h, time 5 day",0.33 /100WBC
same,PLATELET COUNT,"120 h, time 5 day",1289.67 x10E3/uL
same,ALANINE AMINOTRANSFERASE,"120 h, time 5 day",54.33 u/L
same,ALBUMIN,"120 h, time 5 day",4.37 G/DL
same,ALKALINE PHOSPHATASE,"120 h, time 5 day",439.33 u/L
same,ASPARTATE AMINOTRANSFERASE,"120 h, time 5 day",88 u/L
same,BLOOD UREA NITROGEN,"120 h, time 5 day",23 mg/dL
same,CARBON DIOXIDE,"120 h, time 5 day",27 mmol/L
same,CHLORIDE,"120 h, time 5 day",100.33 MEQ/L
same,CHOLESTEROL,"120 h, time 5 day",42.67 mg/dL
same,CREATINE PHOSPHOKINASE,"120 h, time 5 day",236.67 u/L
same,CREATININE,"120 h, time 5 day",0.22 mg/dL
same,GLUCOSE,"120 h, time 5 day",162.33 mg/dL
same,LACTATE DEHYDROGENASE,"120 h, time 5 day",196.67 u/L
same,LIPASE,"120 h, time 5 day",8.67 u/L
same,PHOSPHORUS,"120 h, time 5 day",11.1 mg/dL
same,POTASSIUM,"120 h, time 5 day",6.53 MEQ/L
same,SODIUM,"120 h, time 5 day",144.3 MEQ/L
same,TOTAL BILIRUBIN,"120 h, time 5 day",0.2 mg/dL
same,TOTAL PROTEIN,"120 h, time 5 day",6.13 G/DL
same,URIC ACID,"120 h, time 5 day",1.67 mg/dL
